Values quoted from earlier work as cited in patent publication US20060019313A1, “Method for detecting molecular surface interactions” (Biacore AB, priority 2004, published 2006).

System: Anti-myoglobin IgG
Conditions: stated as known; IgG used as reference

binding to IgG: not to IgG
Compound: CCC(Cc1c(I)cc(I)c(O)c1I)C(=O)O (stereo not drawn) [iophenoxic acid, α-ethyl-3-hydroxy-2,4,6-triiodohydro-cinnamic acid]
